Here are results for 12 molecules from patent US9376436B2, “2-(pyridin-2yl)-1, 7-diaza-spiro [4.4] nonane-6-one compound as voltage-gated sodium channels modulators” (CONVERGENCE PHARMACEUTICALS LIMITED, priority 2011, dated 2016).

The assay has as its target T1, hNaV1.7 (Homo sapiens, UniProt Q15858).
T1 construct: expressed in transfected cells; host or cells: HEK293
Kind of assay: QPatch NaV1.7 assay (whole-cell patch clamp, QPatch16x). It is filed as cell-based. The settings on record: HEK293-hNaV1.7 cells. An outline of the steps:
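Automated whole-cell recordings in hNaV1.7-expressing HEK293 cells, holding at either −90 mV (mostly closed channels) or the half-inactivation voltage. Compounds applied cumulatively at four concentrations for 120 s each; peak current on 20 ms depolarisation to 0 mV fitted by Hill equation to yield pIC50.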

[1] abbreviates: holding voltage V1/2 SSI (half of channels inactivated), read-out: QP Nav1.7 SSI vhalf pIC50 (converted).
The mark [2] stands for this setting: holding voltage −90 mV (most channels closed), read-out: QP Nav1.7 −90 mV pIC50 (converted).

Counter-ions that a name gives are not always drawn. Like-named read-outs stand apart in the source and are kept apart here.

T1 sequence (Q15858 whole entry): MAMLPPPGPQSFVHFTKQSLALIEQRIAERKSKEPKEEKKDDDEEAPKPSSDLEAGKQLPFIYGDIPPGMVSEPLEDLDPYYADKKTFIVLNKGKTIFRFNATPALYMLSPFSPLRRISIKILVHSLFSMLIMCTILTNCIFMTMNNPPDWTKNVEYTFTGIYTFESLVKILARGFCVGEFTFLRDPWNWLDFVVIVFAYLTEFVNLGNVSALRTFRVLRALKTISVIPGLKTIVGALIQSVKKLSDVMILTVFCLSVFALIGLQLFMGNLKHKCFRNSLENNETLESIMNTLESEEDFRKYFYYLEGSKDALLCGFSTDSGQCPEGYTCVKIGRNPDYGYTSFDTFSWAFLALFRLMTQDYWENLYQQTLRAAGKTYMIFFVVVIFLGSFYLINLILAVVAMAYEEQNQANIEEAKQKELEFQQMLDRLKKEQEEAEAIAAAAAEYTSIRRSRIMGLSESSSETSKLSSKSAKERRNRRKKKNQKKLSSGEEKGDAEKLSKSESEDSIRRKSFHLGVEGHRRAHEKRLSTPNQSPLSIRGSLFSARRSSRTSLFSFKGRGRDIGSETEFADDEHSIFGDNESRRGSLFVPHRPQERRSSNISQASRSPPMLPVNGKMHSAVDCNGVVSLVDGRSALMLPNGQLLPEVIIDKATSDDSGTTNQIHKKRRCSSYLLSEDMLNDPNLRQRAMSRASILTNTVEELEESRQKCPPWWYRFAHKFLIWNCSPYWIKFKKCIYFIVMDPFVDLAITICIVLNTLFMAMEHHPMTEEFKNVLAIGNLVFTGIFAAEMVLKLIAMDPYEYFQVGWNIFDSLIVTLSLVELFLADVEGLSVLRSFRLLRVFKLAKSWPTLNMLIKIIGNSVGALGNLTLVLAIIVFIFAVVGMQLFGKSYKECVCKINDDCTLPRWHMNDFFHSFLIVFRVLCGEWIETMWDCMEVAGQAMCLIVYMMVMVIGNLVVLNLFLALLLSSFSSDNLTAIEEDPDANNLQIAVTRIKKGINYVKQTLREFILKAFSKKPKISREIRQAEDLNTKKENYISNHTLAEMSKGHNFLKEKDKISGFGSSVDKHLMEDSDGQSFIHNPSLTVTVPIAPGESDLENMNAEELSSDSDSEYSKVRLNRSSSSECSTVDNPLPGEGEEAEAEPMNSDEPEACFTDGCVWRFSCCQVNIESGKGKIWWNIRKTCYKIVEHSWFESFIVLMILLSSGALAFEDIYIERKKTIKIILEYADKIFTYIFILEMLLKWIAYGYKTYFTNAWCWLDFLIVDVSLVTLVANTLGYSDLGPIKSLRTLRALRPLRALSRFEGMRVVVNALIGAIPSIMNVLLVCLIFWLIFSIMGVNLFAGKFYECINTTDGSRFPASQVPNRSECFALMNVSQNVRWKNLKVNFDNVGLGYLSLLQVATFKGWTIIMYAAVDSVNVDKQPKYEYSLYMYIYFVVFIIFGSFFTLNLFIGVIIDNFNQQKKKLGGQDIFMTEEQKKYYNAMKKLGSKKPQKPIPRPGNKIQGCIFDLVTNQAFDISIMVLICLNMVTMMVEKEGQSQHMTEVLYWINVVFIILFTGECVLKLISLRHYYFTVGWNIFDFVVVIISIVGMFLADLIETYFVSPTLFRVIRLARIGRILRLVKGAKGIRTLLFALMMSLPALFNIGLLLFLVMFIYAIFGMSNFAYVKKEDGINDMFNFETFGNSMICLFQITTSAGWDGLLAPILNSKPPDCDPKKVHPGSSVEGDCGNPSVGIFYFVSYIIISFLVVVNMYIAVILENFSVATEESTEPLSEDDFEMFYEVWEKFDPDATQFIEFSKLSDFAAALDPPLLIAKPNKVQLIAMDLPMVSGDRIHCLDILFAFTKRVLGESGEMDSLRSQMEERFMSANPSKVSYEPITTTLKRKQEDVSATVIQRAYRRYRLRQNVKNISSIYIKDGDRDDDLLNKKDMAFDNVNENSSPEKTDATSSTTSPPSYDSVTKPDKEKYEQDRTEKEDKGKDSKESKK

In the case of `CCOc1ccc(F)c(-c2cc([C@H]3CC[C@@]4(CCN(C)C4=O)N3)ncc2C)c1` [Example 137, (2R,5S)-2-[4-(5-Ethoxy-2-fluoro-phenyl)-5-methyl-2-pyridyl]-7-methyl-1,7-diazaspiro[4.4]nonan-6-one hydrochloride], the IC50 by setting is: under setting [1], 20 µM; under setting [2], 158 µM. Take `CN1CC[C@@]2(CC[C@H](c3cc(-c4ccc(C(F)(F)F)cc4)ccn3)N2)C1=O` [Example 52, (2R,5S)-7-Methyl-2-[4-(4-trifluoromethyl-phenyl)-pyridin-2-yl]-1,7-diaza-spiro[4.4]nonan-6-one hydrochloride]: the IC50 under setting [1] is 6.31 µM and the IC50 under setting [2] is 25.1 µM.

For the molecule `O=C1NCCC[C@]12CC[C@@H](c1cc(-c3ccc(C(F)(F)F)cc3)ccn1)N2` [Example 51, (25,5S)-2-[4-(4-Trifluoromethyl-phenyl)-pyridin-2-yl]-1,7-diaza-spiro[4.5]decan-6-one hydrochloride], the IC50 was 5.01 µM under setting [1] and 25.1 µM under setting [2]. Take `CCOc1cc(-c2cc(C)nc([C@@H]3CC[C@@]4(CCN(C)C4=O)N3)c2)ccc1F` [Example 126, (2S,5S)-2-[4-(3-Ethoxy-4-fluoro-phenyl)-6-methyl-2-pyridyl]-7-methyl-1,7-diazaspiro[4.4]nonan-6-one hydrochloride]: the IC50 was 20 µM under setting [1] and 316 µM under setting [2]. On the same counts, the results for `COc1cnc([C@@H]2CC[C@]3(CCN(C)C3=O)N2)cc1-c1ccc(C(F)(F)F)cc1` [Example 153, (2S,5R)-2-[5-Methoxy-4-[4-(trifluoromethyl)phenyl]-2-pyridyl]-7-methyl-1,7-diazaspiro[4.4]nonan-6-one hydrochloride] are 12.6 µM and 158 µM.

In the case of `Cc1cc(-c2cc(C(F)(F)F)ccc2C(N)=O)cc([C@H]2CC[C@]3(CCN(C)C3=O)N2)n1` [Example 26, 2-[2-Methyl-6-[(2R,5R)-7-methyl-6-oxo-1,7-diazaspiro[4.4]nonan-2-yl]-4-pyridyl]-4-(trifluoromethyl)benzamide hydrochloride], the IC50 under setting [1] was 794 µM. For the molecule `CC(Oc1ccc(F)c(-c2ccnc([C@H]3CC[C@@]4(CCN(C)C4=O)N3)c2)c1)C1CC1` (stereo partly drawn) [Example 255, (2R,5S)-2-[4-[5-(1-(Cyclopropyl)ethoxy)-2-fluoro-phenyl]-2-pyridyl]-7-methyl-1,7-diazaspiro[4.4]nonan-6-one hydrochloride], the IC50 reads like this: under setting [1], 10 µM; under setting [2], 100 µM. For the molecule `CCCOc1cccc(-c2ccnc([C@H]3CC[C@@]4(CCN(C)C4=O)N3)c2)c1` [Example 179, (2R,5S)-7-Methyl-2-[4-(3-propoxyphenyl)-2-pyridyl]-1,7-diazaspiro[4.4]nonan-6-one hydrochloride], the IC50 under setting [1] was 0.794 µM and the IC50 under setting [2] was 31.6 µM. For `COc1cnc([C@H]2CC[C@@]3(CCN(C)C3=O)N2)cc1-c1ccc(C(F)(F)F)cc1` [Example 155, (2R,5S)-2-[5-Methoxy-4-[4-(trifluoromethyl)phenyl]-2-pyridyl]-7-methyl-1,7-diazaspiro[4.4]nonan-6-one hydrochloride] the same measures were 3.98 µM and 39.8 µM. `Cc1cnc([C@H]2CC[C@@]3(CCN(C)C3=O)N2)cc1-c1ccc(C(F)(F)F)cc1` [Example 41, (2R,5S)-7-Methyl-2-[5-methyl-4-[4-(trifluoromethyl)phenyl]-2-pyridyl]-1,7-diazaspiro[4.4]nonan-6-one hydrochloride]: the IC50 reads like this: under setting [1], 2 µM; under setting [2], 25.1 µM. For `O=C1NCC[C@]12CC[C@@H](c1cc(-c3ccc(C(F)(F)F)cc3)ccn1)N2` [Example 114, (2S,5R)-2-[4-[4-(Trifluoromethyl)phenyl]-2-pyridyl]-1,7-diazaspiro[4.4]nonan-6-one hydrochloride] the same measures were 15.8 µM and 79.4 µM.

As to `CCOc1ccc(F)c(-c2ccnc([C@H]3CC[C@@]4(CCN(C)C4=O)N3)c2)c1` [Example 8, (2R,5S)-2-[4-(5-Ethoxy-2-fluoro-phenyl)-2-pyridyl]-7-methyl-1,7-diazaspiro[4.4]nonan-6-one hydrochloride], the IC50 is 0.794 µM under setting [1] and 10 µM under setting [2].
